# Laboratory results from US20240190880A1 (THE REGENTS OF THE UNIVERSITY OF MICHIGAN, priority 2021, published 2024).
# Target: T1, ER (Homo sapiens, UniProt P03372)
# T1 construct: host or cells: T47D and MCF7 human breast cancer cells
# T1 sequence (P03372 1-595): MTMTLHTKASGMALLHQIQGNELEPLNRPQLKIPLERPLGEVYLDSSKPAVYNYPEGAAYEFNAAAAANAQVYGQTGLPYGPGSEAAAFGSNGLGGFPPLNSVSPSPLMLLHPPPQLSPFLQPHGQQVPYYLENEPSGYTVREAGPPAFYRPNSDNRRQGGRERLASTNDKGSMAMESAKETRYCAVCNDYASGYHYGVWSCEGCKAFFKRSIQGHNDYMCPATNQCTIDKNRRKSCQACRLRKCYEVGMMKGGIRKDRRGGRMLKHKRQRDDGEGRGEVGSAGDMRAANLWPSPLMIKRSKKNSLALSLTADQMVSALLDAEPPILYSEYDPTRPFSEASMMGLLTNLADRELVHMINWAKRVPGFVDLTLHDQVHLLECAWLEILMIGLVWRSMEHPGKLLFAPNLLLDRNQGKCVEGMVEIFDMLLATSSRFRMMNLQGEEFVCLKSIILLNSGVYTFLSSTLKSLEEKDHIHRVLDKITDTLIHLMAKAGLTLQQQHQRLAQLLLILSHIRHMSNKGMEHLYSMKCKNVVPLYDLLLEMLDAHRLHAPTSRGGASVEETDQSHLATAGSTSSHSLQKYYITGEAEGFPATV
# Assay: ER degradation activity, in-cell western blot analysis in T47D cells
# Format: cell-based
# Details: 16 hours, Table A does not say which cell line (T47D or MCF7), read-out: Potency (DC50)
# Outline: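 Cells were seeded overnight, exposed to diluted compounds for 16 hours, then stained with primary antibodies and with infrared-labelled secondary antibodies (1:1000, 1 h RT). Plates were scanned on a CLX reader, and ER levels were normalised to DMSO-treated wells.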
row,DC50,Structure (SMILES)
1,> 100 nM,"O=C1CCC(N2C(=O)c3cc4c(cc3C2=O)CN(CC2(F)CCN(C(=O)C3CN(c5ccc([C@@H]6c7ccc(O)cc7CC[C@@H]6c6ccccc6)cc5)C3)CC2)C4)C(=O)N1 (stereo partly drawn) [E 199, 2-(2,6-dioxopiperidin-3-yl)-6-((4-fluoro-1-(1-(4-((1R,2S)-6-hydroxy-2-phenyl-1,2,3,4-tetrahydronaphthalen-1-yl)phenyl)azetidine-3-carbonyl)piperidin-4-yl)methyl)-6,7-dihydropyrrolo[3,4-f]isoindole-1,3(2H,5H)-dione]"
2,> 100 nM,"O=C1CCC(N2C(=O)c3cc4c(cc3C2=O)CN(CC2CN(C(=O)C3CN(c5ccc([C@@H]6c7ccc(O)cc7CC[C@@H]6c6ccccc6)cc5)C3)C2)C4)C(=O)N1 (stereo partly drawn) [E 200, 2-(2,6-dioxopiperidin-3-yl)-6-((1-(1-(4-((1R,2S)-6-hydroxy-2-phenyl-1,2,3,4-tetrahydronaphthalen-1-yl)phenyl)azetidine-3-carbonyl)azetidin-3-yl)methyl)-6,7-dihydropyrrolo[3,4-f]isoindole-1,3(2H,5H)-dione]"
3,> 100 nM,"O=C1CCC(N2C(=O)c3cc4c(cc3C2=O)CN(CC2CCN(C(=O)C3CN(c5ccc([C@@H]6c7ccc(O)cc7CC[C@@H]6c6ccccc6)cc5)C3)CC2)C4)C(=O)N1 (stereo partly drawn) [E 201, 2-(2,6-dioxopiperidin-3-yl)-6-((1-(1-(4-((1R,2S)-6-hydroxy-2-phenyl-1,2,3,4-tetrahydronaphthalen-1-yl)phenyl)azetidine-3-carbonyl)piperidin-4-yl)methyl)-6,7-dihydropyrrolo[3,4-f]isoindole-1,3(2H,5H)-dione]"
4,> 100 nM,"O=C1CCC(N2C(=O)c3cc4c(cc3C2=O)CN(CC2CCN(C(=O)C3(F)CN(c5ccc([C@@H]6c7ccc(O)cc7CC[C@@H]6c6ccccc6)cc5)C3)CC2)C4)C(=O)N1 (stereo partly drawn) [E 203, 2-(2,6-dioxopiperidin-3-yl)-6-((1-(3-fluoro-1-(4-((1R,2S)-6-hydroxy-2-phenyl-1,2,3,4-tetrahydronaphthalen-1-yl)phenyl)azetidine-3-carbonyl)piperidin-4-yl)methyl)-6,7-dihydropyrrolo[3,4-f]isoindole-1,3(2H,5H)-dione]"
5,10 to 100 nM,"O=C1CCC(N2C(=O)c3cc4c(cc3C2=O)CN(CC2CCN(C(=O)C3CCN(c5ccc([C@@H]6c7ccc(O)cc7CC[C@@H]6c6ccccc6)cc5)CC3)CC2)C4)C(=O)N1 (stereo partly drawn) [E 204, 2-(2,6-dioxopiperidin-3-yl)-6-((1-(1-(4-((1R,2S)-6-hydroxy-2-phenyl-1,2,3,4-tetrahydronaphthalen-1-yl)phenyl)piperidine-4-carbonyl)piperidin-4-yl)methyl)-6,7-dihydropyrrolo[3,4-f]isoindole-1,3(2H,5H)-dione]"
6,> 100 nM,"O=C1CCC(N2C(=O)c3cc4c(cc3C2=O)CN(C(=O)C2CCN(CC3CCN(c5ccc([C@@H]6c7ccc(O)cc7CC[C@@H]6c6ccccc6)cc5)CC3)CC2)C4)C(=O)N1 (stereo partly drawn) [E 205, 2-(2,6-dioxopiperidin-3-yl)-6-(1-((1-(4-((1R,2S)-6-hydroxy-2-phenyl-1,2,3,4-tetrahydronaphthalen-1-yl)phenyl)piperidin-4-yl)methyl)piperidine-4-carbonyl)-6,7-dihydropyrrolo[3,4-f]isoindole-1,3(2H,5H)-dione]"
7,> 100 nM,"O=C1CCC(N2C(=O)c3cc4c(cc3C2=O)CN(CC2(F)CN(C(=O)C3CCN(c5ccc([C@@H]6c7ccc(O)cc7CC[C@@H]6c6ccccc6)cc5)CC3)C2)C4)C(=O)N1 (stereo partly drawn) [E 207, 2-(2,6-dioxopiperidin-3-yl)-6-((3-fluoro-1-(1-(4-((1R,2S)-6-hydroxy-2-phenyl-1,2,3,4-tetrahydronaphthalen-1-yl)phenyl)piperidine-4-carbonyl)azetidin-3-yl)methyl)-6,7-dihydropyrrolo[3,4-f]isoindole-1,3(2H,5H)-dione]"
8,> 100 nM,"O=C1CCC(N2C(=O)c3cc4c(cc3C2=O)CN(CC2CCN(C(=O)C3(F)CCN(c5ccc([C@@H]6c7ccc(O)cc7CC[C@@H]6c6ccccc6)cc5)CC3)CC2)C4)C(=O)N1 (stereo partly drawn) [E 208, 2-(2,6-dioxopiperidin-3-yl)-6-((1-(4-fluoro-1-(4-((1R,2S)-6-hydroxy-2-phenyl-1,2,3,4-tetrahydronaphthalen-1-yl)phenyl)piperidine-4-carbonyl)piperidin-4-yl)methyl)-6,7-dihydropyrrolo[3,4-f]isoindole-1,3(2H,5H)-dione]"

# Further lines, the compound ahead of its results:
row,Structure (SMILES),DC50
1,"O=C1CCC(N2C(=O)c3cc4c(cc3C2=O)CN(C(=O)CN2CCC3(CC2)CCN(c2ccc(C(=C(CCCl)c5ccccc5)c5ccc(B(O)O)cc5)cc2)CC3)C4)C(=O)N1 (stereo not shown) [E 198, (4-(4-chloro-1-(4-(9-(2-(6-(2,6-dioxopiperidin-3-yl)-5,7-dioxo-3,5,6,7-tetrahydropyrrolo[3,4-f]isoindol-2(1H)-yl)-2-oxoethyl)-3,9-diazaspiro[5.5]undecan-3-yl)phenyl)-2-phenylbut-1-en-1-yl)phenyl)boronic acid]",10 to 100 nM
2,"O=C1CCC(N2C(=O)c3cc4c(cc3C2=O)CN(CC2(F)CCN(C(=O)C3(F)CN(c5ccc([C@@H]6c7ccc(O)cc7CC[C@@H]6c6ccccc6)cc5)C3)CC2)C4)C(=O)N1 (stereo partly drawn) [E 202, 2-(2,6-dioxopiperidin-3-yl)-6-((4-fluoro-1-(3-fluoro-1-(4-((1R,2S)-6-hydroxy-2-phenyl-1,2,3,4-tetrahydronaphthalen-1-yl)phenyl)azetidine-3-carbonyl)piperidin-4-yl)methyl)-6,7-dihydropyrrolo[3,4-f]isoindole-1,3(2H,5H)-dione]",> 100 nM
3,"C[C@@H]1Cc2c([nH]c3ccccc23)[C@@H](c2c(F)cc(N3CC(F)(C(=O)N4CCC(CN5Cc6cc7c(cc6C5)C(=O)N(C5CCC(=O)NC5=O)C7=O)CC4)C3)cc2F)N1CC(F)F (stereo partly drawn) [E 209, 6-((1-(1-(4-((1R,3R)-2-(2,2-difluoroethyl)-3-methyl-2,3,4,9-tetrahydro-1H-pyrido[3,4-b]indol-1-yl)-3,5-difluorophenyl)-3-fluoroazetidine-3-carbonyl)piperidin-4-yl)methyl)-2-(2,6-dioxopiperidin-3-yl)-6,7-dihydropyrrolo[3,4-f]isoindole-1,3(2H,5H)-dione]",10 to 100 nM
4,"C[C@@H]1Cc2c([nH]c3ccccc23)[C@@H](c2c(F)cc(N3CC(F)(C(=O)N4CCC(F)(CN5Cc6cc7c(cc6C5)C(=O)N(C5CCC(=O)NC5=O)C7=O)CC4)C3)cc2F)N1CC(F)F (stereo partly drawn) [E 210, 6-((1-(1-(4-((1R,3R)-2-(2,2-difluoroethyl)-3-methyl-2,3,4,9-tetrahydro-1H-pyrido[3,4-b]indol-1-yl)-3,5-difluorophenyl)-3-fluoroazetidine-3-carbonyl)-4-fluoropiperidin-4-yl)methyl)-2-(2,6-dioxopiperidin-3-yl)-6,7-dihydropyrrolo[3,4-f]isoindole-1,3(2H,5H)-dione]",> 100 nM
5,"O=C1CCC(N2C(=O)c3cc4c(cc3C2=O)CN(CC2(F)CCN(CC3CCN(c5ccc([C@@H]6c7ccc(O)cc7CC[C@@H]6c6ccccc6)cc5)CC3)CC2)C4)C(=O)N1 (stereo partly drawn) [E 211, 2-(2,6-dioxopiperidin-3-yl)-6-((4-fluoro-1-((1-(4-((1R,2S)-6-hydroxy-2-phenyl-1,2,3,4-tetrahydronaphthalen-1-yl)phenyl)piperidin-4-yl)methyl)piperidin-4-yl)methyl)-6,7-dihydropyrrolo[3,4-f]isoindole-1,3(2H,5H)-dione]",> 100 nM
